According to the NIST ThermoML archive (doi:10.1021/je0502344):
Numbers after ± are expanded uncertainties.

Test: xn = mol fraction of the nth substance listed
Conditions: 101.33 kPa, Liquid

CCO [ethanol] + CCCCCCCCCC=O
x2 = 0
Conditions | mass density [kg/m3] | viscosity [mPa·s]
298.15 K | 785.08 ± 2.9 | 1.088 ± 0.034
308.15 K | 778.09 ± 3.2 | 0.897 ± 0.028
318.15 K | 763.91 ± 3.5 | 0.767 ± 0.024

CCCCCCCC=O [octanal] + CCO
Conditions | mass density, 298.15 K [kg/m3] | mass density, 308.15 K [kg/m3] | mass density, 318.15 K [kg/m3] | viscosity, 298.15 K [mPa·s] | viscosity, 308.15 K [mPa·s] | viscosity, 318.15 K [mPa·s]
x1 = 0.1077 | 787.23 ± 2.9 | 779.83 ± 3.2 | 765.7 ± 3.5 | 1.1 ± 0.035 | 0.915 ± 0.029 | 0.786 ± 0.025
x1 = 0.2019 | 789.45 ± 2.9 | 781.64 ± 3.2 | 767.54 ± 3.5 | 1.11 ± 0.035 | 0.93 ± 0.029 | 0.803 ± 0.025
x1 = 0.3178 | 792.62 ± 2.9 | 784.21 ± 3.2 | 770.18 ± 3.5 | 1.122 ± 0.035 | 0.95 ± 0.03 | 0.825 ± 0.026
x1 = 0.3977 | 795.08 ± 2.9 | 786.22 ± 3.2 | 772.23 ± 3.5 | 1.131 ± 0.036 | 0.964 ± 0.03 | 0.84 ± 0.026
x1 = 0.4952 | 798.4 ± 2.9 | 788.92 ± 3.3 | 774.99 ± 3.6 | 1.142 ± 0.036 | 0.981 ± 0.031 | 0.859 ± 0.027
x1 = 0.6115 | 802.81 ± 3 | 792.5 ± 3.3 | 778.66 ± 3.6 | 1.155 ± 0.036 | 1.001 ± 0.031 | 0.883 ± 0.028
x1 = 0.7003 | 806.51 ± 3 | 795.5 ± 3.3 | 781.74 ± 3.6 | 1.165 ± 0.037 | 1.018 ± 0.032 | 0.901 ± 0.028
x1 = 0.798 | 810.9 ± 3 | 799.07 ± 3.3 | 785.39 ± 3.6 | 1.176 ± 0.037 | 1.036 ± 0.033 | 0.921 ± 0.029
x1 = 0.9089 | 816.3 ± 3 | 803.46 ± 3.3 | 789.88 ± 3.6 | 1.189 ± 0.037 | 1.057 ± 0.033 | 0.945 ± 0.03
x1 = 1 | 821.07 ± 3 | 807.34 ± 3.4 | 793.85 ± 3.7 | 1.2 ± 0.038 | 1.074 ± 0.034 | 0.965 ± 0.03

CCCCCCCCC=O [nonanal] + CCO
Conditions | mass density, 298.15 K [kg/m3] | mass density, 308.15 K [kg/m3] | mass density, 318.15 K [kg/m3] | viscosity, 298.15 K [mPa·s] | viscosity, 308.15 K [mPa·s] | viscosity, 318.15 K [mPa·s]
x1 = 0.1034 | 787.7 ± 2.9 | 780.37 ± 3.2 | 766.24 ± 3.5 | 1.116 ± 0.035 | 0.928 ± 0.029 | 0.798 ± 0.025
x1 = 0.2039 | 790.72 ± 2.9 | 782.99 ± 3.2 | 768.92 ± 3.5 | 1.144 ± 0.036 | 0.96 ± 0.03 | 0.83 ± 0.026
x1 = 0.293 | 793.79 ± 2.9 | 785.65 ± 3.2 | 771.64 ± 3.5 | 1.169 ± 0.037 | 0.989 ± 0.031 | 0.859 ± 0.027
x1 = 0.3939 | 797.7 ± 2.9 | 789.05 ± 3.3 | 775.11 ± 3.6 | 1.199 ± 0.038 | 1.023 ± 0.032 | 0.893 ± 0.028
x1 = 0.5045 | 802.52 ± 3 | 793.24 ± 3.3 | 779.4 ± 3.6 | 1.232 ± 0.039 | 1.061 ± 0.033 | 0.931 ± 0.029
x1 = 0.5943 | 806.85 ± 3 | 797 ± 3.3 | 783.24 ± 3.6 | 1.26 ± 0.04 | 1.093 ± 0.034 | 0.964 ± 0.03
x1 = 0.7116 | 813.07 ± 3 | 802.4 ± 3.3 | 788.76 ± 3.6 | 1.297 ± 0.041 | 1.137 ± 0.036 | 1.009 ± 0.032
x1 = 0.7855 | 817.31 ± 3 | 806.08 ± 3.3 | 792.53 ± 3.6 | 1.32 ± 0.041 | 1.165 ± 0.037 | 1.038 ± 0.033
x1 = 0.898 | 824.25 ± 3.1 | 812.11 ± 3.4 | 798.69 ± 3.7 | 1.357 ± 0.043 | 1.209 ± 0.038 | 1.084 ± 0.034
x1 = 1 | 831.04 ± 3.1 | 818.01 ± 3.4 | 804.72 ± 3.7 | 1.392 ± 0.044 | 1.251 ± 0.039 | 1.127 ± 0.035
